This is an account of results in ChEMBL document CHEMBL1153625, “Structure-based virtual screening approach to identify novel classes of Cdc25B phosphatase inhibitors” (Bioorg Med Chem Lett, 2009).

The target of assay [1] is T1, M-phase inducer phosphatase 2 (Homo sapiens, UniProt P30305).
T1 sequence (P30305 whole entry): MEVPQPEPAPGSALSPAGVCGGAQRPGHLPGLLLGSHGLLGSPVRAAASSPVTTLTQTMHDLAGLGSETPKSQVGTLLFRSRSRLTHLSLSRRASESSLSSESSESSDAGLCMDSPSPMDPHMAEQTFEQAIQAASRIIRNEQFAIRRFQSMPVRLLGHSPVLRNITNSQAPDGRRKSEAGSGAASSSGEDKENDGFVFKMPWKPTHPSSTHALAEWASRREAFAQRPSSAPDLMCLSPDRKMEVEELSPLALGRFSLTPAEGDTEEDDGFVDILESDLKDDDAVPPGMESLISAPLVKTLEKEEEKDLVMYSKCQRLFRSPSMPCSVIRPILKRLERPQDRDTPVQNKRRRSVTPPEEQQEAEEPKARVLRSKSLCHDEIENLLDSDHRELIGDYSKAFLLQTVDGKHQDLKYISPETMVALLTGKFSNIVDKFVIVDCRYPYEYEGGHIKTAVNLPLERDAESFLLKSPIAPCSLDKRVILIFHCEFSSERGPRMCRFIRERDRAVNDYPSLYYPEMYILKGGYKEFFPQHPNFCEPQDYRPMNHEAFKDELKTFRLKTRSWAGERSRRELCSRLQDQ
Kind of assay: Inhibition of GST-fused Cdc25B.

Assay [2] deals with T2, M-phase inducer phosphatase 1 (Homo sapiens, UniProt P30304).
T2 sequence (P30304 whole entry): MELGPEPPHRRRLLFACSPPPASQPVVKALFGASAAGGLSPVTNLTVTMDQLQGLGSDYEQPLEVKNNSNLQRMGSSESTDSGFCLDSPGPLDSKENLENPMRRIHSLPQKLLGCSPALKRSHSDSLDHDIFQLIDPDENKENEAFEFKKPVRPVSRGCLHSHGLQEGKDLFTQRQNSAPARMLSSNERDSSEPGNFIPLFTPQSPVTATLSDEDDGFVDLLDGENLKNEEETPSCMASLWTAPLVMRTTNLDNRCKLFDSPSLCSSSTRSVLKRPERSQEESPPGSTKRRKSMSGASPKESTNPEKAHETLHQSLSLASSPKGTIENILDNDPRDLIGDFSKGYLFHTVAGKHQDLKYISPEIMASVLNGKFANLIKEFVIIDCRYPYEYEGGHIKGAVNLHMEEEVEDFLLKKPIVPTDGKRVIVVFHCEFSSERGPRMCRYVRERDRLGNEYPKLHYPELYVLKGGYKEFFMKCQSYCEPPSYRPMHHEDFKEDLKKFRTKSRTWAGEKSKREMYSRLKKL
Kind of assay: Inhibition of Cdc25A.

Assay [3] in a line: Inhibition of YOP. Further details: species or system Yersinia.
For assay [4], the target named is T3, Tyrosine-protein phosphatase non-receptor type 1 (Homo sapiens, UniProt P18031).
T3 sequence (P18031 whole entry): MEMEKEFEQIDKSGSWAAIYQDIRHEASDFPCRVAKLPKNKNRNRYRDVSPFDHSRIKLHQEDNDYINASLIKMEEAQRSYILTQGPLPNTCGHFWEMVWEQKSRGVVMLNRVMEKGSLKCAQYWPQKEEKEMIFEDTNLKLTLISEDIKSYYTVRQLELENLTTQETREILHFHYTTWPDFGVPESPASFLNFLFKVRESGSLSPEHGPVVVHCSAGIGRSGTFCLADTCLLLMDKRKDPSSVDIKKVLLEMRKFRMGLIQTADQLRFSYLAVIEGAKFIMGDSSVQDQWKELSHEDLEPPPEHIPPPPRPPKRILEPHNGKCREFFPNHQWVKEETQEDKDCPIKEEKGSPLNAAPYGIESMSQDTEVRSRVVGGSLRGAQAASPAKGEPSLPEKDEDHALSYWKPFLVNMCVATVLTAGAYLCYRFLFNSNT
Kind of assay: Inhibition of PTP1B.

In assay [5] the target is T4, Tyrosine-protein phosphatase 1 (Saccharomyces cerevisiae S288c, UniProt P25044).
T4 sequence (P25044 whole entry): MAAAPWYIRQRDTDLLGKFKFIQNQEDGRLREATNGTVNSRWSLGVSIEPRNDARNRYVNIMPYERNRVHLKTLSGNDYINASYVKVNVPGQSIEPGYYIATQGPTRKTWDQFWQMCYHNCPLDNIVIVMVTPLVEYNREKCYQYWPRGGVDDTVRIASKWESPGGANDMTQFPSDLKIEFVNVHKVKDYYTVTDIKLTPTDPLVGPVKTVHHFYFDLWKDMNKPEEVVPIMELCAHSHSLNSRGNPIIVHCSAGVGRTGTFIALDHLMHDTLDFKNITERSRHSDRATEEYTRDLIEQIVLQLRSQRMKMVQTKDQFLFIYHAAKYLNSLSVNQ
The assay can be described thus: Inhibition of YPTP1.

The structures appear in SMILES notation. Where only a bound is given, the exact number is not on record here.

A word on the IC50: it is the midpoint of a concentration-inhibition curve. Read a low IC50 as greater potency. In the case of `N#Cc1c(N)n(Cc2ccc3c(c2)OCO3)c2nc3ccccc3nc12`, the IC50 in assay [1] amounted to 9.1 µM; in assay [2], 5.5 µM.
On to `O=C1C(Cl)=C(NC(Cc2ccccc2)C(=O)O)C(=O)c2ccccc21` (configuration not stated), for which the IC50 in assay [1] was 3.8 µM; in assay [2], 3.5 µM.
For the compound `N#Cc1c(NS(=O)(=O)c2ccccc2)n(Cc2ccccc2)c2nc3ccccc3nc12`, the IC50 was 0.2 µM in assay [1]; 2.9 µM in assay [2]; greater than 100 µM in assay [3]; greater than 100 µM in assay [4]; greater than 100 µM in assay [5].
As to `O=C(Nc1ccc(Cl)c(Cl)c1)Nc1ncc2c(n1)CC(c1ccco1)CC2=O` (configuration not stated), the IC50 was 13.7 µM in assay [1] and 17.8 µM in assay [2].
Take `O=C1C(Cl)=C(NCCc2ccc(F)cc2)C(=O)c2ccccc21`: the half-inhibitory concentration (IC50) in assay [1] was 9.5 µM; in assay [2] it was 3.9 µM.
`Nc1cccc(Nc2nc3ccccc3nc2NS(=O)(=O)c2ccc(Cl)cc2)c1`: the values for the IC50 in assay [1] and in assay [2] were 11.1 µM and 2.3 µM, respectively.
Turning to `O=C(O)c1ccc2c(c1)C(=O)/C(=C/c1ccccc1)C2=O`, the IC50 is 8.6 µM in assay [1] and 13.3 µM in assay [2].
With `O=S(=O)(Nc1cc2nc3ccccc3nc2n1Cc1ccccc1)c1ccccc1`, the IC50 in assay [1] was 0.21 µM; in assay [2] it was 2.1 µM; in assay [3] it was greater than 100 µM; in assay [4], greater than 100 µM; in assay [5], greater than 100 µM.
